# Data taken from patent US12570612B2, “Substituted nitrogen heterocyclic compound and anesthetic effect thereof” (priority 2019, dated 2026).
# How the values were obtained:
# Sprague-Dawley rats [1] = experiment: animal or person; format: in vivo; conditions: rats; for ED50: Rattus norvegicus, LORR, up and down method, tail vein, class symbols, read-out: ED50
# Excerpt: Evaluating indicator: The end point of anesthesia: LORR was used as the end point of anesthesia; General anesthesia effect: the disappearance of forepaw righting reflex in rats lasting for 30 seconds is taken as the index of general anesthesia effect; Anesthesia recovery index: the recovery of rat forepaw righting reflex was used as the index of anesthesia recovery.
# Sprague-Dawley rats [2] = experiment: Pharmacological effect and adverse reactions under the equivalent dose (2ED50), Group C compounds; format: in vivo; conditions: for Righting reflex duration / Sedation duration / Onset time: 2ED50, tail vein, rats, n=8; for Adverse reaction: Convulsions / Adverse reaction: Cough, broken-winded / Adverse reaction: Euphoria / Adverse reaction: Red urine / Adverse reaction: Slower breathing, Tetany convulsion / Adverse reaction: Systemic stiffness, Convulsions, Opisthotonus / Adverse reaction: Tongue stretching / Adverse reaction: Tremor / Adverse reaction: the four limbs rigidity: equivalent dose (2ED50), number of rats of n = 8
# Excerpt: Evaluation index: onset time: from the completion of drug injection to the disappearance of forepaw righting reflex in rats; Duration of anesthesia: the time from the disappearance of rat forepaw righting reflex to the recovery of rat forepaw righting reflex; Recovery time of anesthesia: the time from the […] to complete recovery;
# Sprague-Dawley rats [3] = format: in vivo; conditions: tail vein
# SD rats = system: SD rats
# Protocol: Experimental Methods: Adult male SD rats with body weight ranging from 250 g to 350 g were selected for continuous infusion test.
# Evaluation indexes: the time from the beginning of continuous infusion to the […] of sedation in rats; the time from the cessation of infusion to the restoration of the forepaw turning reflex after 1 hour of continuous infusion; the time from the cessation of infusion to the complete restoration of rats after 1 hour of continuous infusion.
# [4] = after 1 hour continuous infusion at 2 times the MIR, SD rats
# [5] = continuous infusion 2 x MIR 1 hour, rats affected/rats
SMILES,ED50 (Sprague-Dawley rats [1]) [mg/kg],Approximate therapeutic index (Sprague-Dawley rats [1]),Righting reflex duration (Sprague-Dawley rats [2]) [min],Sedation duration (Sprague-Dawley rats [2]) [min],Adverse reaction: Convulsions (Sprague-Dawley rats [2]),"Adverse reaction: Cough, broken-winded (Sprague-Dawley rats [2])",Adverse reaction: Euphoria (Sprague-Dawley rats [2]),Adverse reaction: Red urine (Sprague-Dawley rats [2]),"Adverse reaction: Slower breathing, Tetany convulsion (Sprague-Dawley rats [2])","Adverse reaction: Systemic stiffness, Convulsions, Opisthotonus (Sprague-Dawley rats [2])",Adverse reaction: Tongue stretching (Sprague-Dawley rats [2]),Adverse reaction: Tremor (Sprague-Dawley rats [2]),Adverse reaction: the four limbs rigidity (Sprague-Dawley rats [2]),Minimal lethal dose (Sprague-Dawley rats [3]) [mg/kg],Onset time (Sprague-Dawley rats [2]; unit s) [s],also measured
CCOCC(=O)c1c(F)ncn1[C@H](C)c1ccccc1 [Compound C72],0.04 to 0.5,>27.7,1.29 ± 0.64,5.70 ± 1.51,0,0,0,8,0,0,0,0,0,>8.9,,Onset time (Sprague-Dawley rats [2]; unit min): <60 s
"CCSCC(=O)c1ccnn1[C@H](C)c1ccccc1 [Compound C9, (R)-2-(ethylthio)-1-(1-(1-phenylethyl)-1H-pyrazol-5-yl)ethan-1-one]",2 to 10,>2.1,1.56 ± 0.89,6.62 ± 0.72,0,0,0,8,0,0,0,0,0,>10.2,<30,
C[C@H](c1ccccc1)n1cncc1C(=O)COCC1CC1 [Compound C46],2 to 10,>2.4,1.82 ± 0.64,5.63 ± 1.52,0,0,0,8,0,0,1,1,0,>11.8,<30,
C[C@H](c1ccccc1)n1cncc1C(=O)COC(C)(C)C [Compound C45],,>2.2,3.00 ± 1.02,7.74 ± 0.85,0,0,0,8,0,7,0,0,1,>10.8,<30,
C[C@H](c1ccccc1)n1cncc1C(=O)COCCC1CCC1 [Compound C40],0.5 to 1,>13.8,3.76 ± 1.75,10.48 ± 2.58,1,0,0,8,1,1,0,0,0,>8.3,<30,"After the infusion is stopped: Righting reflex recovery time (SD rats; [4]): 16 to 20 min; Recovery time after stopping infusion (SD rats; [4]): 27 to 35 min; Types and incidence of adverse reactions: Red urine (SD rats; [5]): 6/6; Types and incidence of adverse reactions: Tremor (SD rats; [5]): 2/6; Sedation onset time (SD rats; continuous tail vein infusion at 2 times the MIR, SD rats): <5 min"
C/C=C\C(=O)c1cncn1[C@H](C)c1ccccc1 [Compound C55],2 to 10,>16.6,1.83 ± 0.30,6.26 ± 2.45,0,0,0,8,0,7,0,0,0,>13.61,<30,
